Reference: patent publication US20240101576A1, “HETEROCYCLIC INHIBITORS OF EGFR AND/OR HER2, FOR USE IN THE TREATMENT OF CANCER” (Scorpion Therapeutics, Inc., priority 2020, published 2024)

What was measured:
Type in all cases: cell-based
[1] = target: T1, EGFR WT (Ba/F3 cells) (Homo sapiens, UniProt P00533); experiment: Inhibitor activity on EGFR-dependent cell growth (CellTiter-Glo, 72 h), Ba/F3 EGFR WT; conditions: read-out: BaF3 WT IC50
T1 construct: expressed in transfected cells; host or cells: Ba/F3 (murine pro-B cells), retroviral transduction, puromycin selection, maintained with EGF
T1 sequence (P00533 25-1210): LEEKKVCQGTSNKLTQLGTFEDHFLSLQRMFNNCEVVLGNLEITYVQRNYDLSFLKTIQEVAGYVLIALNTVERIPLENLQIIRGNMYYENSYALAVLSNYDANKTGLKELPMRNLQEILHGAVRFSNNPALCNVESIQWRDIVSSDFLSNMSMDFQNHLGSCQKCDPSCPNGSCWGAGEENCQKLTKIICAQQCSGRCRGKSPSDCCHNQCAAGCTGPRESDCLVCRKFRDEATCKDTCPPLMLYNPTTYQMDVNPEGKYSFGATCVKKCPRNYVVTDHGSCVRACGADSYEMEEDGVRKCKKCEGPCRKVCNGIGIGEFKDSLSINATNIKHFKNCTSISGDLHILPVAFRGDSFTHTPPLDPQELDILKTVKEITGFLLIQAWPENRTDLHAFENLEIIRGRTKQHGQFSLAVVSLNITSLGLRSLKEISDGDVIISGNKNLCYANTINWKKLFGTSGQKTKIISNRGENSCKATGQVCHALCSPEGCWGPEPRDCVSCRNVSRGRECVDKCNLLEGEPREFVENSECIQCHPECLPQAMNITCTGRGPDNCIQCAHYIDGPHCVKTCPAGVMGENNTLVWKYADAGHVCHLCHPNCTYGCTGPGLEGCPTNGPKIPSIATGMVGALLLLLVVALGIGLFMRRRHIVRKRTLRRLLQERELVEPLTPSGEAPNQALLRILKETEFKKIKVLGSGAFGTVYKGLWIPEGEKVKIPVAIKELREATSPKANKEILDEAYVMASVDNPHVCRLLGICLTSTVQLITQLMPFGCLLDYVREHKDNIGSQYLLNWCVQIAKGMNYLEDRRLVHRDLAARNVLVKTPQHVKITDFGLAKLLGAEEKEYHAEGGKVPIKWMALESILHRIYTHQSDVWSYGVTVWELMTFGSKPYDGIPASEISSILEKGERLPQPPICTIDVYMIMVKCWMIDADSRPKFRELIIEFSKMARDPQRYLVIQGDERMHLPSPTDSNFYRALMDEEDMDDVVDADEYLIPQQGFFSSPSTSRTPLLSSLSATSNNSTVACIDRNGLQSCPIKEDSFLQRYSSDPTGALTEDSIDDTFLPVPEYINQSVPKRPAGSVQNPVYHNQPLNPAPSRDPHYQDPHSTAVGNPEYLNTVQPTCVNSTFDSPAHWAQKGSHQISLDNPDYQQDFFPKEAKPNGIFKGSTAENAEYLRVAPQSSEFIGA
Outline: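 This growth assay used Ba/F3 cells that depend on wild-type EGFR and are kept in EGF without IL3. Compounds were made up as 10 mM DMSO stocks and diluted 3-fold over 10 points. 120 nL went onto 600 cells/well. After 72 hours, 40 μL CellTiter-Glo was added and luminescence read on EnVision after 30 min.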

[2] = target: T2, EGFR exon 20 ASV Ins V769_D770 (Ba/F3 cells) (Homo sapiens, UniProt P00533, INS769ASV); experiment: Inhibitor activity on EGFR-dependent cell growth (CellTiter-Glo, 72 h), Ba/F3 EGFR exon 20 ASV Ins; conditions: read-out: BaF3 ASV IC50
T2 construct: expressed in transfected cells; host or cells: Ba/F3 (murine pro-B cells), retroviral transduction, puromycin selection, IL3-independent pool
T2 sequence (P00533 with tags, fused parts or gaps INS769ASV): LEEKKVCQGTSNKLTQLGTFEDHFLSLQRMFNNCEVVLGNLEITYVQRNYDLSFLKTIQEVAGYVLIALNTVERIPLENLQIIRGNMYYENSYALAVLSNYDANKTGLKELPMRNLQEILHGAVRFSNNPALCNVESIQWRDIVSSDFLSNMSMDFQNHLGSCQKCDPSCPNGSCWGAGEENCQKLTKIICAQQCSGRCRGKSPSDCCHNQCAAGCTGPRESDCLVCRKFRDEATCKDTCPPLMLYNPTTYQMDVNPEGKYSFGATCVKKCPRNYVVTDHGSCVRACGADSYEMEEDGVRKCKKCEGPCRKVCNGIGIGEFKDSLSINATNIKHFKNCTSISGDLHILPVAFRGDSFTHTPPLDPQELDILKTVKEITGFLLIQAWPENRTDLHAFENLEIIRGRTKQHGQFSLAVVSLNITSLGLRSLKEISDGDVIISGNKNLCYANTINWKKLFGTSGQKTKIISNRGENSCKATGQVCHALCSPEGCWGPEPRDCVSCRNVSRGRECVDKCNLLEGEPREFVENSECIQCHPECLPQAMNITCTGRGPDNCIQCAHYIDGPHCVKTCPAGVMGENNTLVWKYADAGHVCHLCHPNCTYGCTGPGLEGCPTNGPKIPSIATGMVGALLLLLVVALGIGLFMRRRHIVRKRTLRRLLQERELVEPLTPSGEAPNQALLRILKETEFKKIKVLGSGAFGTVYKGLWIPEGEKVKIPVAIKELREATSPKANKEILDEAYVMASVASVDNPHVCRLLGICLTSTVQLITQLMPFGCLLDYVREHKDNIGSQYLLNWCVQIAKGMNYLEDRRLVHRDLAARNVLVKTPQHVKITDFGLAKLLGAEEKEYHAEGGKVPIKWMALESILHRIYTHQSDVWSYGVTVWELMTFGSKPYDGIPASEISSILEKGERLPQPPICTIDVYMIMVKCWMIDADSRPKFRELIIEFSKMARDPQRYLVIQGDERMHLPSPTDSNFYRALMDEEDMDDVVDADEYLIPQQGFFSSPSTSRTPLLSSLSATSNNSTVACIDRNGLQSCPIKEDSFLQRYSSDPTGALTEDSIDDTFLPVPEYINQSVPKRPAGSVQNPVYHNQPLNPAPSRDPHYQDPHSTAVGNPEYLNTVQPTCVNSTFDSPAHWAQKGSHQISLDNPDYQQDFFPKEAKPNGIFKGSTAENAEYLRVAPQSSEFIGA
Outline: (§1)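 IC50s derive from a sigmoidal dose–response fit of CellTiter-Glo signal. The signal was normalised between […]-treated cells and cell-free medium. Ba/F3 mutant-EGFR cells, seeded at 400–800/well depending on the line, had 72 h of exposure to a 10-point, 3-fold compound series.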

[3] = target: EGFR (CUTO14 cells) (Homo sapiens, UniProt P00533); experiment: Inhibitor activity on EGFR phosphorylation (pEGFR AlphaLISA, 2 h), CUTO14 cells
Sequence of EGFR (CUTO14 cells) (P00533 with tags, fused parts or gaps DUP767-769): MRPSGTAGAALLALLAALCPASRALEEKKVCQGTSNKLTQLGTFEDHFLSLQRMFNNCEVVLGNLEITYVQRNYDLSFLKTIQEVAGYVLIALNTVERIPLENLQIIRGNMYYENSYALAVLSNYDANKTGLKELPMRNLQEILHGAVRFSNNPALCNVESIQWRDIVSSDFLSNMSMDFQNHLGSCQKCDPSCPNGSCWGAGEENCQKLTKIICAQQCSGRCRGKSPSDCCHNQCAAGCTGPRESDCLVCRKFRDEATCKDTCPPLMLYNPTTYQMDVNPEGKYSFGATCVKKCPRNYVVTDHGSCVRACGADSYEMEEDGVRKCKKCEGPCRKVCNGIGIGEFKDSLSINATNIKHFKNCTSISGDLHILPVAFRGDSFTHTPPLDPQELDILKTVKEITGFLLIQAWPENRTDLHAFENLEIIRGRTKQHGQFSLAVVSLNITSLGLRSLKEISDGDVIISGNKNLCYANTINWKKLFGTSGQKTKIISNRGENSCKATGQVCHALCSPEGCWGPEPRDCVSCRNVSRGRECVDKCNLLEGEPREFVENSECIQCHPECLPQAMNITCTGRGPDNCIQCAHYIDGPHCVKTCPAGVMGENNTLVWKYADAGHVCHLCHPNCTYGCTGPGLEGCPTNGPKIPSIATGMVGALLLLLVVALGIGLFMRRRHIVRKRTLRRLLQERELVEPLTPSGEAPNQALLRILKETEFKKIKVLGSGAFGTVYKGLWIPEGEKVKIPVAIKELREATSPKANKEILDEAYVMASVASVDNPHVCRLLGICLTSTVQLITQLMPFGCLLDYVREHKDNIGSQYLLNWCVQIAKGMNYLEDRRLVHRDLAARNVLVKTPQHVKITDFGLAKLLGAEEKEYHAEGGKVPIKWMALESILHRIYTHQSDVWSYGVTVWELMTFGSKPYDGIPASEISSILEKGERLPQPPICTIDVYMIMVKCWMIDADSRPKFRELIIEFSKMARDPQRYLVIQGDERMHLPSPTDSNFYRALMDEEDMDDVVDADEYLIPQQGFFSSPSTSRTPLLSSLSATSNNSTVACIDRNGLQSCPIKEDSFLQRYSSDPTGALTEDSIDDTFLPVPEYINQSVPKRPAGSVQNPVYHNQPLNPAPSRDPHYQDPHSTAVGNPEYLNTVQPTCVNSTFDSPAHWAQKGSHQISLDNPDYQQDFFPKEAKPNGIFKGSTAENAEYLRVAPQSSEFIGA
Text: Example B. Inhibitor Activity on EGFR phosphorylation (pEGFR)
EGFR mutant Ba/F3 cells were generated by transduction with retrovirus containing vectors expressing EGFR L858R, EGFR exon 19del, EGFR L858R/C797S, EGFR exon 20 NPG Ins D770_N771, EGFR exon 20 ASV Ins V769_D770, or EGFR exon 20 SVD Ins D770_N771 genes along with a puromycin selection marker. Transduced cells are selected with puromycin for 7 days and are then be transferred into culture media without Interleukin 3 (IL3). Surviving cells are confirmed to express EGFR by Western blot and maintained as a pool. CUTO14 cells were obtained from Dr. Robert C. Doebele at the University of Colorado. The IC50 date are included in Table 6 and Table 7.
1.1 Cells are harvested from flask into cell culture medium and the cell number counted.
1.2 Cells are diluted with culture medium to the desired density and 40 μL of cell suspension is added into each well of 384-well cell culture plate and the seeding density is 50K cells/well (Ba/F3) or 12.5K cells/well (CUTO14).
2 Compound Preparation and Treatment
2.1 Test compounds are dissolved to 10 mM in a DMSO stock solution. 45 μL of stock solution is transferred to a 384 polypropylene plate (pp-plate). Perform 3-fold, 10-point dilution via transferring 15 μL compound into 30 μL DMSO using a TECAN (EVO200) liquid handler.
2.2 Spin plates at room temperature at 1,000 RPM for 1 minute.
2.3 Transfer 5 nL of diluted compound from compound source plate into the cell plate.
2.4 After compound treatment for 2 hours, perform pEGFR detection by AlphaLISA for compound treatment plates as described in “Detection” section.
3 Detection by pEGFR AlphaLISA (Perkin-Elmer)
3.1 Plates are removed from incubators and equilibrated at room temperature for 10 minutes, and media was removed
3.2 10 μL of lysis buffer is added and plates shaken at 600 rpm for 1 hr.
3.3 Prepare acceptor mix just before use and dispense 5 μL of acceptor mix to all the wells. Shake 350 rpm for Ihr in the dark
3.4 Prepare donor mix under low light conditions prior to use. Dispense 5 μL of donor mix to all the wells. Mix well on the shaker, seal and wrap in aluminum foil and incubate 1.5 hrs at room temperature in the dark
3.5 Transfer 18.5 μL mixture to OptiPlate 384, and read using an Envision. The IC50 date were included in Table 6 and Table 7.

[4] = target: T3, EGFR exon 20 SVD Ins D770_N771 (Ba/F3 cells) (Homo sapiens, UniProt P00533, INS770SVD); experiment: Inhibitor activity on EGFR-dependent cell growth (CellTiter-Glo, 72 h), Ba/F3 EGFR exon 20 SVD Ins; conditions: read-out: BaF3 SVD IC50
T3 construct: expressed in transfected cells; host or cells: Ba/F3 (murine pro-B cells), retroviral transduction, puromycin selection, IL3-independent pool
Outline: as §1

[5] = target: T4, EGFR exon 20 NPG Ins D770_N771 (Ba/F3 cells) (Homo sapiens, UniProt P00533, INS770NPG); experiment: Inhibitor activity on EGFR-dependent cell growth (CellTiter-Glo, 72 h), Ba/F3 EGFR exon 20 NPG Ins; conditions: read-out: BaF3 NPG IC50
T4 construct: expressed in transfected cells; host or cells: Ba/F3 (murine pro-B cells), retroviral transduction, puromycin selection, IL3-independent pool
T4 sequence (P00533 with tags, fused parts or gaps INS770NPG): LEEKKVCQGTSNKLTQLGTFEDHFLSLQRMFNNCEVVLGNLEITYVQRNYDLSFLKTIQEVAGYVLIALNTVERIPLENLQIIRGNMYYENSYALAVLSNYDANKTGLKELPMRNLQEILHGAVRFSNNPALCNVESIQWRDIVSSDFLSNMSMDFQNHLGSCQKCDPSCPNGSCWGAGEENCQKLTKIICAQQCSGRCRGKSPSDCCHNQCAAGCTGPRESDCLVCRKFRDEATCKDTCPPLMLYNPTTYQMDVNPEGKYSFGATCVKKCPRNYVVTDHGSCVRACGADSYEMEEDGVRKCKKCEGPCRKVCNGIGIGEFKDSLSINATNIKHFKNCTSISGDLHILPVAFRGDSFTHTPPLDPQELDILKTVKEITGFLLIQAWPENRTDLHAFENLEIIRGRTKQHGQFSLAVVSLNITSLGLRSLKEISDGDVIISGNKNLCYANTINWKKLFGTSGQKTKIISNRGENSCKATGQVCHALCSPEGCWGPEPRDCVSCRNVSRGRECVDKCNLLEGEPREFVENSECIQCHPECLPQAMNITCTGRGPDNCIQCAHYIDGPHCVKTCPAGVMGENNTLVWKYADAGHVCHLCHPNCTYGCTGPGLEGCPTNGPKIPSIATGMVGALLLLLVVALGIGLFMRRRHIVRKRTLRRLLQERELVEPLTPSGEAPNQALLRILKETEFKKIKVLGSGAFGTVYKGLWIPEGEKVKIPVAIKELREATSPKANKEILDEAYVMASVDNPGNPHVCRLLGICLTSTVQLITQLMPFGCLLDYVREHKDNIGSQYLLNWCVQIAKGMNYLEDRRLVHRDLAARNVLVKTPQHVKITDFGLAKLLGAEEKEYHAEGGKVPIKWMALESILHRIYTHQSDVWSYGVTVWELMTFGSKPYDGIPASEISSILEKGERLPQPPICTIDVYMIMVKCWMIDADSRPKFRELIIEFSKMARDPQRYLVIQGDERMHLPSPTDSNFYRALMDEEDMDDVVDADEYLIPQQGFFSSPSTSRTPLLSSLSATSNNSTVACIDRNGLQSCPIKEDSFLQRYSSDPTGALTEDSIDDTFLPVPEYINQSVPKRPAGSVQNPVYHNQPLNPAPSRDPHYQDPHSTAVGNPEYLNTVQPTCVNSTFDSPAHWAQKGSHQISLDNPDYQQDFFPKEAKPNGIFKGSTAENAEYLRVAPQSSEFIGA
Outline: as §1

IC50 [1] | IC50 [2] | IC50 [3] | IC50 [4] | IC50 [5] | SMILES
< 100 nM | < 100 nM | < 100 nM | < 100 nM | < 100 nM | C=CC(=O)N1CCC2(CC1)CNC(=O)c1c2[nH]c(-c2ccnc(C)n2)c1Nc1cccc(F)c1OC [compound 644]
> 1000 nM | 100 to 1000 nM | < 100 nM | 100 to 1000 nM | 100 to 1000 nM | COc1c(F)cccc1Nc1c(-c2ccncn2)[nH]c2c1C(=O)NCC21CCN(C(=O)/C=C/CN(C)C)CC1 [compound 650]
100 to 1000 nM | < 100 nM | < 100 nM | < 100 nM | < 100 nM | C=CC(=O)N1CCC2(CC1)CNC(=O)c1c2[nH]c(-c2ccncn2)c1Nc1cc(F)cc(F)c1OC [compound 612]
100 to 1000 nM | < 100 nM | < 100 nM | < 100 nM | < 100 nM | C=CC(=O)N1CCC2(CC1)CNC(=O)c1c2[nH]c(-c2ccncc2F)c1Nc1cc(F)cc(F)c1OC [compound 610]
> 1000 nM | 100 to 1000 nM | < 100 nM | 100 to 1000 nM | 100 to 1000 nM | COc1c(Cl)cc(F)cc1Nc1c(-c2ccnc(C)n2)[nH]c2c1C(=O)NC[C@H]2C[C@@H]1COCCO1 [compound 652]

More lines, now with the values behind:

SMILES | IC50 [1] | IC50 [2] | IC50 [3] | IC50 [4] | IC50 [5]
COc1c(F)cccc1Nc1c(-c2ccnc(Nc3cnn(C)n3)n2)[nH]c2c1C(=O)NCC2 [compound 593, 3-[(3-fluoro-2-methoxyphenyl)amino]-2-{2-[(2-methyl-1,2,3-triazol-4-yl)amino]pyrimidin-4-yl}-1H,5H,6H,7H-pyrrolo[3,2-c]pyridin-4-one] | 100 to 1000 nM | < 100 nM | < 100 nM | < 100 nM | < 100 nM
COc1c(Cl)cccc1Nc1c(-c2ccncc2)[nH]c2c1C(=O)NCC2C[C@@H]1CN(C)CCO1 (single isomer, unassigned) [Compound 646] | > 1000 nM | > 1000 nM | < 100 nM | > 1000 nM | > 1000 nM
COc1c(Cl)cccc1Nc1c(-c2ccnc(Nc3cnn(C)n3)n2)[nH]c2c1C(=O)NCC2 [compound 592, 3-[(3-chloro-2-methoxyphenyl)amino]-2-{2-[(2-methyl-1,2,3-triazol-4-yl)amino]pyrimidin-4-yl}-1H,5H,6H,7H-pyrrolo[3,2-c]pyridin-4-one] | 100 to 1000 nM | < 100 nM | < 100 nM | < 100 nM | < 100 nM
C=CC(=O)N1CCC2(CC1)CNC(=O)c1c2[nH]c(-c2ccnc(C)n2)c1Nc1cccc(Cl)c1OC [compound 643] | < 100 nM | < 100 nM | < 100 nM | < 100 nM | < 100 nM
COc1c(Cl)cccc1Nc1c(-c2ccncc2)[nH]c2c1C(=O)NC[C@H]2C[C@@H]1CN(C)CCO1 [Compound 645, (7R)-3-[(3-chloro-2-methoxyphenyl)amino]-7-{[(2R)-4-methylmorpholin-2-yl]methyl}-2-(pyridin-4-yl)-1H,5H,6H,7H-pyrrolo[3,2-c]pyridin-4-one] | > 1000 nM | < 100 nM | < 100 nM | < 100 nM | < 100 nM
COc1c(Cl)cccc1Nc1c(-c2ccncc2F)[nH]c2c1C(=O)NC[C@@H]2C[C@@H]1CN(C)CCO1 [compound 790] | 100 to 1000 nM | < 100 nM | < 100 nM | < 100 nM | < 100 nM
C=CC(=O)N1CCC2(CC1)CNC(=O)c1c2[nH]c(-c2ccnc(C)n2)c1Nc1cc(F)cc(F)c1OC [compound 641] | 100 to 1000 nM | < 100 nM | < 100 nM | < 100 nM | < 100 nM
